Read-outs that look alike come from different tables or passages of the source.
Tests used:
Pythium ultimum = assay: Threshold concentration test for use of the compounds against Pythium ultimum (infested soil, garden peas); type: in vivo; design: key to root evaluation (1-4): 4: white roots without fungous necrosis; 3: white roots, minor fungous necrosis; 2: brown roots, already more pronounced fungous necrosis; 1: heavy fungous necrosis, roots rotted; conditions: for root evaluation (1-4): 3 weeks; for number of sound peas: 20 grains per dish, 3 weeks at 20-24° C.
Outline: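 Pulverulent agents at 20% concentration mixed evenly into soil heavily infested with Pythium ultimum, then garden peas ('Wunder von Kelvedon', 20 per dish) sown at once. After three weeks at 20–24 °C in a hothouse, sound peas counted and roots scored on a 1–4 scale.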

Tilletia caries [1] = assay: Treatment of oat seeds infested with Tilletia caries (spore germination); type: in vivo
Tilletia caries [2] = assay: Seed treatment in open field tests regarding infestation by Tilletia caries (oats); type: in vivo; conditions: summer oats, about 4 months
Fusarium nivale = assay: Treatment of rye seeds against Fusarium nivale; type: in vivo; conditions: 100 g/100 kg; about 4 weeks
Description: Treatment of rye seeds against Fusarium nivale
Rye seeds with a natural infestation by Fusarium nivale were seeded in earth filled pots and left for germination at about 6° C. Part of the seeds was treated before seeding with the active agents as appears from the subsequent table and part was untreated. After emergence of the seedlings the plants were illuminated with artificial light for 12 hours each day. After about 4 weeks the degree of infestation was determined in percentages. The fungicidal activity was calculated on the basis of the following formula: [formula]
The active agents were used in the form of 20% concentration compositions.

Helminthosporium gram = conditions: about 5 weeks
Description: Treatment of barley seeds infested with Helminthosporium gram
After emergence, the plants were subjected to illumination for 12 hours per day. After about 5 weeks the infested plants were counted and the total number of plants for each test were also counted. The active agents tested were used as pulverulent compositions.

Fusarium avenaceum [3] = assay: Threshold concentration test in case of Fusarium avenaceum (infested soil, garden peas); type: in vivo; conditions: for number of sound peas: 20 grains per dish, 18 days at 20-24° C.; for root evaluation (1-4): 18 days
Outline: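 Soil heavily infested with Fusarium avenaceum was mixed uniformly with a 20% powder formulation of active agent, then sown immediately with 20 garden pea seeds ('Wunder von Kelvedon') per dish. After 18 days in a greenhouse at 20° to 24° C., sound plants were counted and roots scored on a 1–4 scale.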

Penicillium digitatum = assay: Inhibition of fungus in a nutrient solution: Penicillium digitatum; type: cell-based; conditions: 6 days at 21-23° C.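 Further: 0 means no fungus growth and higher grades mean more surface covered.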
Botrytis cinerea = assay: Inhibition of fungus in a nutrient solution: Botrytis cinerea; type: cell-based; conditions: 6 days at 21-23° C.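 Further: 0 means no fungus growth and higher grades mean more surface covered.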
Alternaria solani = assay: Inhibition of fungus in a nutrient solution: Alternaria solani; type: cell-based; conditions: 6 days at 21-23° C.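 Further: 0 means no fungus growth and higher grades mean more surface covered.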
Fusarium avenaceum [4] = assay: Inhibition of fungus in a nutrient solution: Fusarium avenaceum; type: cell-based; conditions: 6 days at 21-23° C.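 Further: 0 means no fungus growth and higher grades mean more surface covered.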
Description: Inhibition of fungus in a nutrient solution
20 ml of a nutrient solution of grape juice and water (1:1) were filled into a glass vial of a 100 ml capacity and were mixed with the pulverulent active agents which appear from the subsequent table. Thereafter, the solution was inoculated with conidia (spores) of the test fungi.
After an incubation time of 6 days at 21° to 23° C. the fungus development on the surface of the nutrient solution was evaluated. The test fungi used were the following: Penicillium digitatum, Botrytis cinerea, Alternaria solani, Fusarium avenaceum.
The evaluation was carried out at a scale from 0 to 5 as follows: […]

[5] = system: Helminthosporium gramineum; assay: Seed treatment in open field tests for infestation by Helminthosporium gramineum (barley); type: in vivo
Description: Seed treatment in open field tests for infestation by Helminthosporium gramineum
The active agents were used in the form of pulverulent compositions. After about 8 months in case of winter barley and after about 3 months in case of summer barley the infested plants were counted and the activity was calculated by the formula [formula]

Plasmopara viticola = assay: Prophylactic leaf treatment of grapevines in the hothouse against Plasmopara viticola; type: in vivo
Outline: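 Grapevines (5–8 leaves) sprayed to runoff with compound as 20% spray powder, then after drying inoculated on leaf undersides with sporangial suspension (~20,000/ml). Incubated at 22–24 °C, saturated humidity, 3–4 days normal humidity (30–70%), then one day saturated; activity from mean % infested leaf area per treatment.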

Septoria nodorum = assay: Treatment of oat seeds against Septoria nodorum; type: in vivo; conditions: 50 g active agent/100 kg seeds; 4 weeks
Description: Effects of the treatment of oat seeds against Septoria nodorum
They were then seeded on a moist substrate for germination. As a control untreated seeds were likewise seeded. At about 6° C. the seed was incubated in an air-conditioned chamber until after 4 weeks the proportion of diseased seeds could be determined and the activity of the fungicidal compounds was calculated on the basis of the following formula: [formula]
The active agents were applied in the form of 20% concentration pulverulent compositions.

Piricularia oryzae = type: in vivo; conditions: concentration of active agent 0.1 (percentages); 5 days
[6] = system: root gall nematodes (Meloidogyne sp.); assay: Threshold concentration test with root gall nematodes (cucumber, infested soil); type: in vivo; conditions: 28 days at 24-27° C.
From the text: Threshold concentration test with root gall nematodes (Meloidogyne sp.)
20% concentration pulverulent active agents as listed in the table below were mixed in a uniform manner with a soil which had been heavily infested by root gall nematodes. After waiting for 3 days the treated soil was placed in two clay dishes of a capacity of 0.5 liter. 10 grain of cucumber seeds of the type "Guntruud" were placed into each dish.
Thereafter, the contents of the dishes were permitted to develop at a temperature of 24° to 27° C. for a time of 28 days in a hothouse. The cucumber roots were then washed out and were examined in a water bath regarding nematode infestation. The reduction of the infestation by the active agents as compared with untreated control material was determined in percentages.
The nematocidal activity was calculated by the formula
A=the infestation in the untreated control material and
B=the infestation after treatment.

[7] = summer barley, 50 g active agent/100 kg barley, about 3 months
[8] = summer barley, 100 g active agent/100 kg barley, about 3 months
[9] = winter barley, 50 g active agent/100 kg barley, about 8 months
[10] = winter barley, 100 g active agent/100 kg barley, about 8 months

| Structure (SMILES) | root evaluation (1-4) (Pythium ultimum; 20 mg/l soil) | number of sound peas (Pythium ultimum; 20 mg/l soil) | root evaluation (1-4) (Pythium ultimum; 40 mg/l soil) | number of sound peas (Pythium ultimum; 40 mg/l soil) | root evaluation (1-4) (Pythium ultimum; 80 mg/l soil) | number of sound peas (Pythium ultimum; 80 mg/l soil) | % activity (Tilletia caries [1]; 10 g active agent per 100 kg) [%] | % activity (Tilletia caries [1]; 20 g active agent per 100 kg) [%] | % activity (Fusarium nivale) [%] | % activity (Helminthosporium gram; 10 g active agent per 100 kg) [%] | % activity (Helminthosporium gram; 20 g active agent per 100 kg) [%] | % activity (Helminthosporium gram; 50 g active agent per 100 kg) [%] | % activity (Tilletia caries [1]; 50 g active agent per 100 kg) [%] | % activity [5, 7] [%] | % activity [5, 8] [%] | % activity (Septoria nodorum) [%] | also measured |
| --- | --- | --- | --- | --- | --- | --- | --- | --- | --- | --- | --- | --- | --- | --- | --- | --- | --- |
| CC[S+]([O-])c1nnc(C(N)=O)s1 (stereo not shown) [5-ethylsulfinyl-1,3,4-thiadiazole-2-carboxamide] | 2 | 15 | 4 | 20 | 4 | 20 | 96 | 100 | 93 | 99 | 100 | 100 |  |  |  |  | % activity (Tilletia caries [1]; 5 g active agent per 100 kg): 78%; % activity (Tilletia caries [2]; 25 g active agent/100 kg): 100%; % activity (Tilletia caries [2]; 50 g active agent/100 kg): 100% |
| CCS(=O)(=O)c1nnc(C#N)s1 [5-ethylsulfonyl-1,3,4-thiadiazole-2-carbonitrile] | 2 | 19 | 4 | 20 | 4 | 20 |  |  | 92 |  |  |  |  |  |  |  | number of sound peas (Fusarium avenaceum [3]; 25 mg/l soil): 18; root evaluation (1-4) (Fusarium avenaceum [3]; 25 mg/l soil): 4; number of sound peas (Fusarium avenaceum [3]; 50 mg/l soil): 20; root evaluation (1-4) (Fusarium avenaceum [3]; 50 mg/l soil): 4; number of sound peas (Fusarium avenaceum [3]; 100 mg/l soil): 20; root evaluation (1-4) (Fusarium avenaceum [3]; 100 mg/l soil): 4; fungus development on the surface of the nutrient solution (0-5) (Penicillium digitatum; 0.002%): 0; fungus development on the surface of the nutrient solution (0-5) (Penicillium digitatum; 0.004%): 0; fungus development on the surface of the nutrient solution (0-5) (Botrytis cinerea; 0.002%): 1; fungus development on the surface of the nutrient solution (0-5) (Botrytis cinerea; 0.004%): 0; fungus development on the surface of the nutrient solution (0-5) (Alternaria solani; 0.002%): 0; fungus development on the surface of the nutrient solution (0-5) (Alternaria solani; 0.004%): 0; fungus development on the surface of the nutrient solution (0-5) (Fusarium avenaceum [4]; 0.002%): 0; fungus development on the surface of the nutrient solution (0-5) (Fusarium avenaceum [4]; 0.004%): 0 |
| CCS(=O)(=O)c1nnc(C(N)=O)s1 [5-ethylsulfonyl-1,3,4-thiadiazole-2-carboxamide] | 2 | 18 | 4 | 18 | 4 | 20 | 93 | 100 | 99.2 | 97 | 100 | 100 |  |  |  |  | % activity (Tilletia caries [1]; 5 g active agent per 100 kg): 87% |
| C=CCNC(=O)c1nnc(S(=O)(=O)CC)s1 [5-ethylsulfonyl-1,3,4-thiadiazole-2-carboxylic acid-allylamide] | 1 | 11 | 4 | 17 | 4 | 16 | 100 | 100 | 94 | 100 | 100 | 100 | 100 | 100 | 100 | 72 | % activity ([5]; summer barley, 25 g active agent/100 kg barley, about 3 months): 97%; % activity (Plasmopara viticola; concentration of active agent 0.001 (unit not given)): 98%; % activity (Plasmopara viticola; concentration of active agent 0.005 (unit not given)): 96%; % activity (Plasmopara viticola; concentration of active agent 0.025 (unit not given)): 99.4% |
| CCS(=O)(=O)c1nnc(C(=O)N(C)C)s1 [5-ethylsulfonyl-1,3,4-thiadiazole-2-carboxylic acid-dimethylamide] | 4 | 13 | 4 | 13 | 4 | 15 | 100 | 100 | 100 |  | 94 | 100 | 100 | 99.5 | 100 | 86 | % activity (Piricularia oryzae): 90%; % activity [5, 9]: 99.5%; % activity [5, 10]: 100% |
| CCS(=O)(=O)c1nnc(C(=O)NC)s1 [5-ethylsulfonyl-1,3,4-thiadiazole-2-carboxylic acid-methylamide] | 4 | 17 | 4 | 15 | 4 | 19 | 100 | 100 | 100 |  | 91 | 97 | 100 | 100 | 100 | 72 | % activity [5, 9]: 100%; % activity [5, 10]: 100% |
| CS(=O)(=O)c1nnc(C#N)s1 [5-methylsulfonyl-1,3,4-thiadiazole-2-carbonitrile] | 3 | 17 | 4 | 16 | 4 | 20 |  |  |  |  |  |  |  |  |  |  | number of sound peas (Fusarium avenaceum [3]; 25 mg/l soil): 18; root evaluation (1-4) (Fusarium avenaceum [3]; 25 mg/l soil): 4; number of sound peas (Fusarium avenaceum [3]; 50 mg/l soil): 17; root evaluation (1-4) (Fusarium avenaceum [3]; 50 mg/l soil): 4; number of sound peas (Fusarium avenaceum [3]; 100 mg/l soil): 19; root evaluation (1-4) (Fusarium avenaceum [3]; 100 mg/l soil): 4; fungus development on the surface of the nutrient solution (0-5) (Penicillium digitatum; 0.002%): 1; fungus development on the surface of the nutrient solution (0-5) (Penicillium digitatum; 0.004%): 0; fungus development on the surface of the nutrient solution (0-5) (Botrytis cinerea; 0.002%): 1; fungus development on the surface of the nutrient solution (0-5) (Botrytis cinerea; 0.004%): 0; fungus development on the surface of the nutrient solution (0-5) (Alternaria solani; 0.002%): 0; fungus development on the surface of the nutrient solution (0-5) (Alternaria solani; 0.004%): 0; fungus development on the surface of the nutrient solution (0-5) (Fusarium avenaceum [4]; 0.002%): 0; fungus development on the surface of the nutrient solution (0-5) (Fusarium avenaceum [4]; 0.004%): 0; Percentage reduction of infestation ([6]; 50 mg per liter soil): 71%; Percentage reduction of infestation ([6]; 100 mg per liter soil): 88%; Percentage reduction of infestation ([6]; 200 mg per liter soil): 96% |
| CSc1nnc(C#N)s1 [5-methylthio-1,3,4-thiadiazole-2-carbonitrile] |  |  |  |  |  |  |  |  |  |  |  |  |  |  |  |  | Percentage reduction of infestation ([6]; 50 mg per liter soil): 95%; Percentage reduction of infestation ([6]; 100 mg per liter soil): 99%; Percentage reduction of infestation ([6]; 200 mg per liter soil): 100% |

From patent US4281121A, “1,3,4-Thiadiazole-2-carboxylic acid derivatives, process for making the same and fungicidal and nematocidal compositions containing same” (Schering Aktiengesellschaft, priority 1978, dated 1981)
